# According to US7179821B2, “Method of treating of demyelinating diseases or conditions” (Aventis Pharmaceuticals Inc., priority 2001, dated 2007):
# Tested on: RuR-induced flaccid paralysis
# Assay: Antagonism of ruthenium red (RuR)-induced flaccid paralysis, flagpole test
# Assay type: in vivo, mouse
# Conditions: for antagonism of the flaccid paralysis induced by ip RuR (conclusion): doses of Table 3
# Experimental: Method and Results: Groups of 4–5 mice (CD-1; Charles River; 25–35 grams) were separately but simultaneously injected ip with ruthenium red and vehicle (1% glacial acetic acid), ruthenium red and 4-AP, or ruthenium red and HP 184. The compound known as “8183” was also tested in this paradigm. Starting at 15 minutes after injections, mice were placed near a “flagpole” apparatus and their ability to support their own body weight (ie, to hold on to the flagpole and not fall) was recorded. Results were recorded as the number of mice that could support their own body weight versus the total number of mice tested. All experiments were performed between 2PM and 4:30PM.
# [1] = 30 mg/kg ip with RuR 30 mg/kg ip, 15 min
# [2] = 30 mg/kg ip with RuR 30 mg/kg ip, 30 min
# [3] = 30 mg/kg ip with RuR 30 mg/kg ip, 45 min
# [4] = 100 mg/kg ip with RuR 30 mg/kg ip, 15 min
# [5] = 100 mg/kg ip with RuR 30 mg/kg ip, 30 min
# [6] = 100 mg/kg ip with RuR 30 mg/kg ip, 45 min
# [7] = 10 mg/kg ip with RuR 30 mg/kg ip, 15 min
# [8] = 10 mg/kg ip with RuR 30 mg/kg ip, 30 min
# [9] = 10 mg/kg ip with RuR 30 mg/kg ip, 45 min
Compound,% of mice that could support their own body weight [1],number of mice that could support their own body weight versus total tested [1],% of mice that could support their own body weight [2],number of mice that could support their own body weight versus total tested [2],% of mice that could support their own body weight [3],number of mice that could support their own body weight versus total tested [3],% of mice that could support their own body weight [4],number of mice that could support their own body weight versus total tested [4],% of mice that could support their own body weight [5],number of mice that could support their own body weight versus total tested [5],% of mice that could support their own body weight [6],number of mice that could support their own body weight versus total tested [6],antagonism of the flaccid paralysis induced by ip RuR (conclusion),% of mice that could support their own body weight [7],number of mice that could support their own body weight versus total tested [7],% of mice that could support their own body weight [8],number of mice that could support their own body weight versus total tested [8],% of mice that could support their own body weight [9],number of mice that could support their own body weight versus total tested [9]
diphenylhydaintoin [DPH],(26.7%),4 out of 15,(20%),3 out of 15,(26.7%),4 out of 15,(55%),11 out of 20,(50%),10 out of 20,(50%),10 out of 20,lack of effect,–,–,–,–,–,–
Cc1cn(Nc2ccncc2F)c2ccccc12 [compound 8183],(92.8%),13 out of 14,(92.8%),13 out of 14,(100%),14 out of 14,–,–,–,–,–,–,–,–,–,–,–,–,–
"Nc1nc2ccc(OC(F)(F)F)cc2s1 [RIL, riluzole]",–,–,–,–,–,–,–,–,–,–,–,–,lack of effect,(60%),9 out of 15,(26.7%),4 out of 15,(26.7%),4 out of 15
